What was measured:
velvetleaf = assay: Test B pre-/postemergence herbicide test; type: in vivo, Abutilon theophrasti; conditions: for Velvetleaf plant response rating: postemergence
Method in brief: (§1)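 Response was scored visually 13 to 15 days after treatment against untreated greenhouse controls, 0 meaning no effect and 100 complete control. Formulations (solvent mixture plus surfactant) went onto soil after planting, onto foliage of 1- to 4-leaf plants, and onto 2-leaf plants in a flooded paddy set including rice and barnyardgrass.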

morningglory = assay: Test B pre-/postemergence herbicide test; type: in vivo, Ipomoea coccinea; conditions: for Morningglory plant response rating: postemergence
Method in brief: (§2)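 Herbicidal effect was judged by eye on a 0–100 scale after plants stood 13 to 15 days in the greenhouse following pre- or postemergence treatment with surfactant-containing formulations.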

wheat = assay: Test B postemergence herbicide test; type: in vivo, Triticum aestivum; parameters: key to Wheat plant response rating: 0 = no effect, 100 = complete control; conditions: postemergence
Method in brief: (§3)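 Visual ratings, 0 (no effect) to 100 (complete control), made versus controls after 13–15 d greenhouse. Paddy plants treated at 2-leaf stage; postemergence plants at 1- to 4-leaf stage, 2–18 cm tall.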

large crabgrass = assay: Test B pre-/postemergence herbicide test; type: in vivo, Digitaria sanguinalis; conditions: for Crabgrass, Large plant response rating: postemergence
Method in brief: as §1

wild oat = assay: Test B postemergence herbicide test; type: in vivo, Avena fatua; conditions: postemergence
Method in brief: as §3

ducksalad [1] = assay: Test C flooded paddy test; type: in vivo, Heteranthera limosa
barnyardgrass [2] = assay: Test B pre-/postemergence herbicide test; type: in vivo, Echinochloa crus-galli; conditions: for Barnyardgrass plant response rating: postemergence, scale 0 (no effect) to 100 (complete control)
Method in brief: as §2

pigweed = assay: Test B pre-/postemergence herbicide test; type: in vivo, Amaranthus retroflexus; conditions: for Pigweed plant response rating: postemergence
Method in brief: as §1

corn = assay: Test B pre-/postemergence herbicide test; type: in vivo, Zea mays; conditions: for Corn plant response rating: postemergence
Method in brief: as §1

[3] = tested on: small flower umbrella sedge; assay: Test B flooded paddy test; type: in vivo, Cyperus difformis; conditions: 1000 g ai/ha, scale 0 to 100 (0 no effect, 100 complete control)
Method in brief: (§4)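 Treated at 2-leaf (paddy) or 1–4-leaf, 2–18 cm (postemergence); greenhouse 13–15 d; visual score vs control, 0 none to 100 complete control; dash = not tested.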

barnyardgrass [4] = assay: Test B flooded paddy test; type: in vivo, Echinochloa crus-galli; conditions: 1000 g ai/ha, scale 0 to 100 (0 no effect, 100 complete control)
Method in brief: as §4

blackgrass = assay: Test B postemergence herbicide test; type: in vivo, Alopecurus myosuroides; conditions: postemergence, visual rating, scale 0 (no effect) to 100 (complete control)
Method in brief: as §4

Surinam grass = assay: Test B pre-/postemergence herbicide test; type: in vivo, Urochloa decumbens; conditions: for Surinam Grass plant response rating: postemergence
Method in brief: as §1

lambsquarters = assay: Test B pre-/postemergence herbicide test; type: in vivo, Chenopodium album; conditions: for Lambsquarters plant response rating: postemergence
Method in brief: as §1

[5] = tested on: smallflower umbrella sedge; assay: Test C flooded paddy test; type: in vivo, Cyperus difformis
rice [6] = assay: Test B pre-/postemergence herbicide test; type: in vivo, Oryza sativa; conditions: 0 = no effect, 100 = complete control, preemergence
Method in brief: as §1

cocklebur = assay: Test B pre-/postemergence herbicide test; type: in vivo, Xanthium strumarium; conditions: for Cocklebur plant response rating: postemergence, scale 0 (no effect) to 100 (complete control)
Method in brief: as §2

ducksalad [7] = assay: Test B flooded paddy test; type: in vivo, Heteranthera limosa; conditions: 1000 g ai/ha, scale 0 to 100 (0 no effect, 100 complete control)
Method in brief: as §4

rice [8] = assay: Test C flooded paddy test; type: in vivo, Oryza sativa
Method in brief: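 Plants were grown to the 1- to 4-leaf stage (2–18 cm) and then treated postemergence, or grown to the 2-leaf stage for the flooded paddy test. They were held in a greenhouse for 12 to 14 days and then scored by eye against controls, where 0 is no effect and 100 is complete control.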

barnyardgrass [9] = assay: Test C flooded paddy test; type: in vivo, Echinochloa crus-galli
Method in brief: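 Injury scored visually against controls on a 0 (no effect) to 100 (complete control) scale, 12 to 14 days after treatment in greenhouse. Flooded paddy plants treated at 2-leaf stage; postemergence plants at 1- to 4-leaf stage, 2 to 18 cm tall.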

rice [10] = assay: Test B flooded paddy test; type: in vivo, Oryza sativa; conditions: 1000 g ai/ha, scale 0 to 100 (0 no effect, 100 complete control)
Method in brief: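 Postemergence plants were sprayed with formulated test chemicals at 2 to 18 cm height (1- to 4-leaf stage); paddy species were grown to the 2-leaf stage. After 13 to 15 days in a greenhouse, injury was rated visually against untreated controls on a 0–100 scale (0 = no effect, 100 = complete control).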

giant foxtail = assay: Test B pre-/postemergence herbicide test; type: in vivo, Setaria faberi; conditions: for Foxtail, Giant plant response rating: postemergence
Method in brief: as §1

[11] = 125 g ai/ha, 0 = no effect, 100 = complete control, preemergence
[12] = 500 g ai/ha, visual rating, 0 = no effect, 100 = complete control, preemergence
[13] = 125 g ai/ha, visual rating, scale 0 (no effect) to 100 (complete control)
[14] = 500 g ai/ha, scale 0 to 100, 0 is no effect, 100 is complete control
[15] = 125 g ai/ha, scale 0 to 100 (0 no effect, 100 complete control)
[16] = 250 g ai/ha, scale of 0 to 100, 0 is no effect, 100 is complete control
[17] = 500 g ai/ha, visual rating after 12 to 14 days, scale 0 to 100 (0 no effect, 100 complete control)

CCn1nc(C(C)(C)C)cc1C(=O)Nc1cccc(C(=O)N2CCOCC2)n1 [Compound 247]
Velvetleaf plant response rating (0 to 100 scale) (velvetleaf; [11]): 20
Plant response rating, Velvetleaf (velvetleaf; [12]): 100
Velvetleaf plant response rating (velvetleaf; [13]): 30
Velvetleaf plant response rating (velvetleaf; [14]): 70
Morningglory plant response rating (0 to 100 scale) (morningglory; [11]): 0
Plant response rating, Morningglory (morningglory; [12]): 10
Morningglory plant response rating (morningglory; [13]): 20
Morningglory plant response rating (morningglory; [14]): 30
Wheat plant response rating (wheat; [13]): 0
Wheat plant response rating (wheat; [14]): 0
Crabgrass, Large plant response rating (0 to 100 scale) (large crabgrass; [11]): 20
Plant response rating, Crabgrass, Large (large crabgrass; [12]): 80
Crabgrass, Large plant response rating (large crabgrass; [13]): 10
Crabgrass, Large plant response rating (large crabgrass; [14]): 10
Oat, Wild plant response rating (wild oat; [13]): 0
Oat, Wild plant response rating (wild oat; [14]): 10
Ducksalad plant response rating (ducksalad [1]; 62 g ai/ha, scale 0 to 100): 0
Ducksalad plant response rating (ducksalad [1]; [15]): 0
Ducksalad plant response rating (ducksalad [1]; [16]): 0
Plant response rating, Ducksalad (ducksalad [1]; [17]): 80
Barnyardgrass plant response rating (0 to 100 scale) (barnyardgrass [2]; [11]): 30
Plant response rating, Barnyardgrass (barnyardgrass [2]; [12]): 80
Barnyardgrass plant response rating (barnyardgrass [2]; 125 g ai/ha, visual rating): 0
Barnyardgrass plant response rating (barnyardgrass [2]; 500 g ai/ha, visual rating): 10
Pigweed plant response rating (0 to 100 scale) (pigweed; [11]): 100
Plant response rating, Pigweed (pigweed; [12]): 100
Pigweed plant response rating (pigweed; [13]): 60
Pigweed plant response rating (pigweed; [14]): 60
Corn plant response rating (0 to 100 scale) (corn; [11]): 0
Plant response rating, Corn (corn; [12]): 30
Corn plant response rating (corn; [13]): 0
Corn plant response rating (corn; [14]): 20
Sedge, Umbrella plant response rating [3]: 70
Barnyardgrass plant response rating (barnyardgrass [4]): 70
Blackgrass plant response rating (blackgrass; 125 g ai/ha): 0
Blackgrass plant response rating (blackgrass; 500 g ai/ha): 0
Surinam Grass plant response rating (0 to 100 scale) (Surinam grass; [11]): 20
Plant response rating, Surinam Grass (Surinam grass; [12]): 50
Surinam Grass plant response rating (Surinam grass; [13]): 10
Surinam Grass plant response rating (Surinam grass; [14]): 20
Lambsquarters plant response rating (0 to 100 scale) (lambsquarters; [11]): 80
Plant response rating, Lambsquarters (lambsquarters; [12]): 100
Lambsquarters plant response rating (lambsquarters; [13]): 60
Lambsquarters plant response rating (lambsquarters; [14]): 70
Sedge, Umbrella plant response rating ([5]; 62 g ai/ha, scale 0 to 100): 0
Sedge, Umbrella plant response rating [5, 15]: 0
Sedge, Umbrella plant response rating [5, 16]: 15
Plant response rating, Sedge, Umbrella [5, 17]: 75
Rice plant response rating (0 to 100 scale) (rice [6]; 125 g ai/ha): 10
Plant response rating, Rice (rice [6]; 500 g ai/ha, visual rating): 40
Cocklebur plant response rating (0 to 100 scale) (cocklebur; [11]): 0
Plant response rating, Cocklebur (cocklebur; [12]): 0
Cocklebur plant response rating (cocklebur; 125 g ai/ha, visual rating): 0
Cocklebur plant response rating (cocklebur; 500 g ai/ha, visual rating): 30
Ducksalad plant response rating (ducksalad [7]): 80
Rice plant response rating (rice [8]; 62 g ai/ha, scale 0 to 100): 0
Rice plant response rating (rice [8]; [15]): 0
Rice plant response rating (rice [8]; [16]): 20
Plant response rating, Rice (rice [8]; [17]): 75
Barnyardgrass plant response rating (barnyardgrass [9]; 62 g ai/ha, scale 0 to 100 (0 no effect, 100 complete control)): 0
Barnyardgrass plant response rating (barnyardgrass [9]; [15]): 0
Barnyardgrass plant response rating (barnyardgrass [9]; [16]): 0
Plant response rating, Barnyardgrass (barnyardgrass [9]; [17]): 0
Rice plant response rating (rice [10]): 80
Foxtail, Giant plant response rating (0 to 100 scale) (giant foxtail; [11]): 10
Plant response rating, Foxtail, Giant (giant foxtail; [12]): 70
Foxtail, Giant plant response rating (giant foxtail; [13]): 10
Foxtail, Giant plant response rating (giant foxtail; [14]): 20
